# In patent US7718651B2, “Inhibitors of FtsZ and uses thereof” (priority 2002, dated 2010):
# Where two headings read alike, the source gives them in different places.
# Legend:
# Assay type in all cases: cell-based
# M. tuberculosis H37Rv [1] = assay: microbe, parasite or virus in culture; details: for inhibition of growth at 12.5 µg/mL: Mycobacterium tuberculosis, at 12.5% μg/ml (so in the source), read-out: Primary Screen PI (% inhibition of growth); for inhibition of growth at 12.5 µg/mL / % Inh: M. tuberculosis H37Rv; for activity against M. tuberculosis H37Rv in the primary screen: in words; for % Inh: screen concentration 12.5 g/ml [sic], Table 8
# M. tuberculosis H37Rv [2] = assay: MIC99 determination, BACTEC 460 radiometric system; details: for MIC99: Table 3, read-out: Screen 2 MIC99
# Vero cells = assay: Cytotoxicity in Vero cells (MTS assay); details: Chlorocebus sabaeus
# M. tuberculosis H37Ra = assay: MIC/MBC, colorimetric (alamar blue) microdilution broth assay; details: Mycobacterium tuberculosis, H37RA, M. tuberculosis H37Ra, positive control; read-out: MIC
# [3] = Mycobacterium tuberculosis, M. tuberculosis H37Rv
# [4] = 72 h, Vero cells, 72 h exposure, Table 3, read-out: IC50
# [5] = Vero cells, Table 8, read-out: IC50
# [6] = Mycobacterium tuberculosis, M. tuberculosis H37Rv, Table 8, read-out: MIC
# [7] = Mycobacterium tuberculosis, H37RV
Structure (SMILES),% Inh (M. tuberculosis H37Rv [1]) [%],IC50 (Vero cells; [5]) [µg/mL],MIC (M. tuberculosis H37Rv [2]; [6]) [µg/mL],other results
"CCOC(=O)Nc1cc2c(c(N)n1)N=C(c1ccccc1)C(c1ccccc1)O2 (stereo not shown) [CAO-040, (5-Amino-2,3-diphenyl-2H-pyrido-[4,3b][1,4]oxazin-7-yl)-carbamic acid ethyl ester]",,,,inhibition of growth at 12.5 µg/mL (M. tuberculosis H37Rv [1]): 90%; activity against M. tuberculosis H37Rv in the primary screen (M. tuberculosis H37Rv [1]): demonstrated activity; MIC99 (M. tuberculosis H37Rv [2]; [3]): 6.25 µg/mL
"CCOC(=O)Nc1cc(NCc2ccc(S(N)(=O)=O)cc2)c2nc(-c3ccccc3)c(-c3ccccc3)nc2n1 [Compound 4427-026-15, [2,3-Diphenyl-8-(4-sulfamoyl-benzylamino)-pyrido[2,3-b]pyrazin-6-yl]-carbamic acid ethyl ester]",,,,inhibition of growth at 12.5 µg/mL (M. tuberculosis H37Rv [1]): 97%; activity against M. tuberculosis H37Rv in the primary screen (M. tuberculosis H37Rv [1]): demonstrated activity; MIC99 (M. tuberculosis H37Rv [2]; [3]): 0.39 µg/mL; IC50 (Vero cells; [4]): > 6.25 µg/mL
"CCN(CC)S(=O)(=O)c1ccc(CNc2cc(N)nc3nc(-c4ccccc4)c(-c4ccccc4)nc23)cc1 [Compound 4427-143, 4-[(6-Amino-2,3-diphenyl-pyrdo[2,3b]pyrazin-8-yl-amino)-methyl]-N,N-diethyl-benzenesulfonamide]",,,,inhibition of growth at 12.5 µg/mL (M. tuberculosis H37Rv [1]): 99%; activity against M. tuberculosis H37Rv in the primary screen (M. tuberculosis H37Rv [1]): demonstrated activity; MIC99 (M. tuberculosis H37Rv [2]; [3]): 3.13 µg/mL
CCOC(=O)Nc1cc(NC(C)CCCN(CC)CC)c2nc(-c3ccccc3)c(-c3ccccc3)nc2n1 (stereo not shown) [Compound A1],100,4.3,,"MIC (M. tuberculosis H37Rv [2]; M. tuberculosis H37Rv, Table 8): 0.2 µg/mL"
CCOC(=O)Nc1cc2c(c(N)n1)N=C(c1ccccc1)CCN2 [Compound A2],100,> 200,6.25,
CCOC(=O)Nc1cc(NC(C)CCCN(CC)CC)c2ncc(-c3ccc(Cl)cc3)nc2n1.Cl (stereo not shown) [Compound A5],99,,1.56,
CCOC(=O)Nc1cc(NC(C)CCCN(CC)CC)c2nc(-c3ccc(Cl)cc3)c(-c3ccc(Cl)cc3)nc2n1 (stereo not shown) [Compound A6],99,,1.56,
CCOC(=O)Nc1cc(NC(C)CCCN(CC)CC)c2ncc(-c3ccc(Cl)c(Cl)c3)nc2n1.Cl.Cl (stereo not shown) [Compound A7],99,,3.13,IC50 (Vero cells): 1.89 µg/mL
CCOC(=O)Nc1cc2c(c(N)n1)N=C(c1ccc(OCc3ccccc3)cc1)[C@H](C)N2 [Compound A8],99,,6.25,
CCOC(=O)Nc1cc2c(c(N)n1)N=C(c1ccc(OCc3ccccc3)cc1)[C@@H](C)N2 [Compound A9],99,,6.25,
CCOC(=O)Nc1cc(N)c(N)c(NC(C)C(O)c2ccccc2)n1 (stereo not shown) [Compound A10],99,> 200,12.5,
CC(C)OC(=O)Nc1cc2c(c(N)n1)N=C(c1ccccc1)[C@H](C)N2 [Compound A11],99,1.51,12.5,
CCOC(=O)Nc1cc2c(c(N)n1)N=C(c1ccc3c(c1)OCO3)[C@H](C)N2 [Compound A12],99,1.51,12.5,
CCOC(=O)Nc1cc(NC(C)CCCN(CC)CC)c2nc(-c3ccccc3)c(-c3ccccc3)nc2n1.Cl (stereo not shown) [Compound A21],98,,0.1,IC50 (Vero cells): 8.3 µg/mL
CCOC(=O)Nc1cc(NC(C)CCCN(CC)CC)c2ncc(-c3ccc(OC)cc3)nc2n1.Cl (stereo not shown) [Compound A22],98,,1.56,IC50 (Vero cells): 8.7 µg/mL
CCOC(=O)Nc1cc(NC(C)CCCN(CC)CC)c2ncc(-c3ccc(C(F)(F)F)cc3)nc2n1 (stereo not shown) [Compound A23],98,,,MIC (M. tuberculosis H37Rv [2]; [7]): 6.25 µg/mL; IC50 (Vero cells): 1.6 µg/mL
CCOC(=O)Nc1cc(NC(C)CCCN(CC)CC)c2nc(-c3ccc(F)cc3)cnc2n1 (stereo not shown) [Compound A25],98,,,MIC (M. tuberculosis H37Rv [2]; [7]): 12.5 µg/mL; IC50 (Vero cells): 6.8 µg/mL
C[C@@H]1Nc2cc(NC(=O)OCc3ccccc3)nc(N)c2N=C1c1ccccc1 [Compound A26],98,1.51,12.5,
CCOC(=O)Nc1cc(NCc2ccc(S(N)(=O)=O)cc2)c2nc(-c3ccccc3)c(-c3ccccc3)nc2n1 [Compound A33],97,> 6.25,0.39,
CCOC(=O)Nc1cc(NC(C)CCCN(CC)CC)c2nc(-c3ccc(Cl)cc3)cnc2n1.Cl.Cl (stereo not shown) [Compound A34],97,,6.25,IC50 (Vero cells): 2.28 µg/mL
CCOC(=O)Nc1cc(NC(C)C(O)COc2ccccc2)c(N)c(N)n1 (stereo not shown) [Compound A35],97,> 1000,12.5,
O=C(Nc1cc(Cl)cc(NC(=O)Oc2ccccc2)n1)Oc1ccccc1 [Compound A36],97,,,MIC (M. tuberculosis H37Rv [2]; [7]): 12.5 µg/mL
CCOC(=O)Nc1cc(NC(C)CCCN(CC)CC)c2ncc(-c3ccccc3)nc2n1.Cl.Cl (stereo not shown) [Compound A37],96,,12.5,

Structure (SMILES),% Inh (M. tuberculosis H37Rv [1]) [%],IC50 (Vero cells; [5]) [µg/mL],MIC (M. tuberculosis H37Rv [2]; [6]) [µg/mL],other results
CCOC(=O)Nc1cc2[nH]c(-c3ccc4c(c3)OCO4)nc2c(NC(c2ccccc2)c2ccccc2)n1 [Compound A39],95,> 200,1.56,
CCOC(=O)Nc1cc2c(c(N)n1)N=C(c1ccccc1)C(C)(C)S2.Cl [Compound A40],95,,> 6.25,
CCCCC1=Nc2c(cc(NC(=O)OCC)nc2N)NC1C (stereo not shown) [Compound A41],95,1.51,12.5,
CCOC(=O)Nc1cc2c(c(N)n1)N=C(c1cc(OC)cc(OC)c1)[C@H](C)O2 [Compound A42],95,,12.5,
CCOC(=O)Nc1cc(Nc2ccc(Cl)cc2)c2nccnc2n1 [Compound A43],94,,6.25,
CCOC(=O)Nc1cc2c(c(N)n1)N=C(c1ccc(OC)cc1)C(C)N2 (stereo not shown) [Compound A44],94,1.53,12.5,
CCOC(=O)Nc1cc2[nH]c(-c3ccc(OC)cc3)nc2c(NC(c2ccccc2)c2ccccc2)n1 [Compound A46],93,189,3.13,
CCOC(=O)Nc1cc(NC/C(=N\O)C23CC4CC(CC(C4)C2)C3)c([N+](=O)[O-])c(N)n1 [Compound A47],93,,> 12.5,
CCOC(=O)Nc1cc(NC(C)CCCN(CC)CC)c2nc(-c3ccc([N+](=O)[O-])cc3)cnc2n1 (stereo not shown) [Compound A50],92,,,MIC (M. tuberculosis H37Rv [2]; [7]): > 6.25 µg/mL
CCOC(=O)Nc1cc2nc(-c3ccccc3)c(-c3ccccc3)nc2c(NC(=O)OCC)n1 [Compound A51],92,,> 6.25,
CCOC(=O)Nc1cc2[nH]c(-c3ccccc3)nc2c(NC(c2ccccc2)c2ccccc2)n1 [Compound A52],92,> 200,12.5,
CCOC(=O)Nc1cc2c(c(N)n1)N=C(CN(C)c1ccccc1)CN2 [Compound A53],92,0.41,12.5,
CCOC(=O)Nc1cc2c(c(N)n1)N=C(c1ccccc1)C(c1ccccc1)O2 (stereo not shown) [Compound A55],90,,6.25,
CCOC(=O)Nc1cc2c(c(N)n1)N=C(c1ccccc1)[C@H](C)O2 [Compound A56],90,,12.5,
CCOC(=O)Nc1cc2c(c(NC(c3ccccc3)c3ccccc3)n1)N=C(c1ccccc1)C1NC=CN21 (stereo not shown) [Compound A311],−16,,,
CCOC(=O)Nc1cc(NC(C)[C@H](O)c2ccccc2)c(N)c(N)n1 (stereo partly shown) [Compound A312],−19,,,
CCOC(=O)Nc1cc(NC(C)C(=O)Cc2ccccc2)c([N+](=O)[O-])c(N)n1 (stereo not shown) [Compound A313],−21,,,
CCOC(=O)Nc1cc(NC(C)C(=O)c2ccccc2)c([N+](=O)[O-])cn1 (stereo not shown) [Compound A314],−36,,,
"CC[C@@H](CO)NCCN[C@@H](CC)CO [Ethambutol, ethambutol, reference compound]",,,,MIC (M. tuberculosis H37Ra): 2 µg/mL
"CCOC(=O)Nc1cc2c(c(N)n1)N=C(CN(C)c1ccc(OC)cc1)CN2 [SRI-5713, (5-Amino-3-{[(4-methoxy-phenyl)-methyl-amino]-methyl}-1,2-dihydro-pyrido[3,4-b]pyrazin-7-yl)-carbamic acid ethyl ester]",,,,inhibition of growth at 12.5 µg/mL (M. tuberculosis H37Rv [1]): 20%
"CCOC(=O)Nc1cc(NC(C)C(O)COc2ccccc2)c(N)c(N)n1 (stereo not shown) [SRI-7405, [5,6-Diamino-4-(2-hydroxy-1-methyl-3-phenoxy-propylamino)-pyridin-2-yl]-carbamic acid ethyl ester]",,,,inhibition of growth at 12.5 µg/mL (M. tuberculosis H37Rv [1]): 97%; activity against M. tuberculosis H37Rv in the primary screen (M. tuberculosis H37Rv [1]): demonstrated activity; MIC99 (M. tuberculosis H37Rv [2]; [3]): 12.5 µg/mL; IC50 (Vero cells; [4]): > 1000 µg/mL
"CCCCNC(=O)Oc1ccc(C2=Nc3c(cc(NC(=O)OCC)nc3N)N[C@H]2C)cc1 [SRI-20158, [5-Amino-3-(4-butylcarbamoyloxy-phenyl)-2-methyl-1,2-dihydro-pyrido[3,4-b]pyrazin-7-yl]-carbamic acid ethyl ester]",,,,inhibition of growth at 12.5 µg/mL (M. tuberculosis H37Rv [1]): 10%
